Assay results published in the supplement of paper PMC11451515.

Columns and labels:
Conditions in all cases: 48 h
NOMO1 [1] = experiment: cell viability relative to DMSO control; higher = less cytotoxic
Outline: (§1)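 Viability was expressed as a per-plate percentage of DMSO wells, with cell-free wells as background. Leukemia cells (NOMO1 or SEM at 500 cells/well, P12-Ichikawa at 1000 cells/well) were adapted for at least four passages in each medium and seeded in 1536-well plates (5 μl). Library compounds in DMSO were pin-dosed over an 11-point threefold series from 47 μM to 0.79 nM, and CellTiter-Glo One luminescence was read after 48 h at 37°C.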

P12-Ichikawa [2] = experiment: as above
Outline: as §1

SEM cells [3] = experiment: as above
Outline: as §1

NOMO1 [4] = experiment: AUC of viability dose-response curve (% viability x log10 dose units); higher = less sensitive
Outline: (§2)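 Viability of medium-adapted leukemia cells was measured by CellTiter-Glo One luminescence after 48 h at 37°C with library compounds in DMSO. Doses were 11 threefold steps from 47 μM to 0.79 nM, in 1536-well plates at 500 or 1000 cells/well. Signals were normalised per plate to DMSO and cell-free wells and fitted with a four-parameter log-logistic model on log10 dose. Area under the curve was integrated by trapezoidal rule, with curves exceeding full viability scaled and failed quality-control curves removed.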

P12-Ichikawa [5] = experiment: as above
Outline: as §2

SEM cells [6] = experiment: as above
Outline: as §2

O=C(O)[C@H](Cc1c[nH]c2ccccc12)N1C(=O)c2ccccc2C1=O
cell viability [%]
Conditions | NOMO1 [1] | P12-Ichikawa [2] | SEM cells [3]
HPLM + 10% dialyzed FBS, 0.000781 µM | 96.1 | 98.3 | 85.2
HPLM + 10% dialyzed FBS, 0.00234 µM | 107 | 109 | 63.5
HPLM + 10% dialyzed FBS, 0.00702 µM | 103 | 104 | 96.4
HPLM + 10% dialyzed FBS, 0.0211 µM | 99.4 | 106 | 92.4
HPLM + 10% dialyzed FBS, 0.0632 µM | 110 | 99.5 | 99.3
HPLM + 10% dialyzed FBS, 0.19 µM | 91.5 | 99.8 | 102
HPLM + 10% dialyzed FBS, 0.569 µM | 90.8 | 105 | 91.7
HPLM + 10% dialyzed FBS, 1.71 µM | 103 | 110 | 97.8
HPLM + 10% dialyzed FBS, 5.12 µM | 119 | 103 | 105
HPLM + 10% dialyzed FBS, 15.4 µM | 99.6 | 102 | 99.4
HPLM + 10% dialyzed FBS, 46.1 µM | 117 | 99.3 | 83.8
RPMI 5 mM glucose + 10% FBS, 0.000781 µM | 89.8 | 89.6 | 99.1
RPMI 5 mM glucose + 10% FBS, 0.00234 µM | 83.3 | 91.9 | 52.9
RPMI 5 mM glucose + 10% FBS, 0.00702 µM | 97 | 91.3 | 105
RPMI 5 mM glucose + 10% FBS, 0.0211 µM | 89.1 | 93.4 | 112
RPMI 5 mM glucose + 10% FBS, 0.0632 µM | 87.9 | 98.3 | 100
RPMI 5 mM glucose + 10% FBS, 0.19 µM | 80.8 | 103 | 108
RPMI 5 mM glucose + 10% FBS, 0.569 µM | 89.3 | 103 | 90.7
RPMI 5 mM glucose + 10% FBS, 1.71 µM | 97.1 | 97 | 93.3
RPMI 5 mM glucose + 10% FBS, 5.12 µM | 90.4 | 101 | 92
RPMI 5 mM glucose + 10% FBS, 15.4 µM | 92.3 | 101 | 84.8
RPMI 5 mM glucose + 10% FBS, 46.1 µM | 86.1 | 94.3 | 77.4
RPMI 5 mM glucose + 10% dialyzed FBS, 0.000781 µM | 92.5 | 91.2 | 89.8
RPMI 5 mM glucose + 10% dialyzed FBS, 0.00234 µM | 99.1 | 90.5 | 41.9
RPMI 5 mM glucose + 10% dialyzed FBS, 0.00702 µM | 104 | 91.8 | 96.4
RPMI 5 mM glucose + 10% dialyzed FBS, 0.0211 µM | 101 | 102 | 94.8
RPMI 5 mM glucose + 10% dialyzed FBS, 0.0632 µM | 98.7 | 94.4 | 83.8
RPMI 5 mM glucose + 10% dialyzed FBS, 0.19 µM | 94.1 | 99.5 | 87.4
RPMI 5 mM glucose + 10% dialyzed FBS, 0.569 µM | 100 | 99 | 99.3
RPMI 5 mM glucose + 10% dialyzed FBS, 1.71 µM | 101 | 105 | 84.7
RPMI 5 mM glucose + 10% dialyzed FBS, 5.12 µM | 103 | 95 | 97.1
RPMI 5 mM glucose + 10% dialyzed FBS, 15.4 µM | 99.6 | 98.6 | 81.9
RPMI 5 mM glucose + 10% dialyzed FBS, 46.1 µM | 83.3 | 92.2 | 68

AUC of viability dose-response curve
Conditions | NOMO1 [4] | P12-Ichikawa [5] | SEM cells [6]
HPLM + 10% dialyzed FBS | 440 | 474 | 445
RPMI 5 mM glucose + 10% FBS | 426 | 462 | 440
RPMI 5 mM glucose + 10% dialyzed FBS | 470 | 460 | 405

CCOC(=O)C/1=C(C)/NC(=S)NC1C2=CC=CC(=C2)O (stereo not drawn)
cell viability [%]
Conditions | NOMO1 [1] | P12-Ichikawa [2] | SEM cells [3]
HPLM + 10% dialyzed FBS, 0.000781 µM | – | 110 | 110
HPLM + 10% dialyzed FBS, 0.00234 µM | – | 115 | 99.3
HPLM + 10% dialyzed FBS, 0.00702 µM | – | 115 | 103
HPLM + 10% dialyzed FBS, 0.0211 µM | – | 118 | 111
HPLM + 10% dialyzed FBS, 0.0632 µM | – | 125 | 68.2
HPLM + 10% dialyzed FBS, 0.19 µM | – | 59 | 24.3
HPLM + 10% dialyzed FBS, 0.569 µM | – | 9.07 | 22.9
HPLM + 10% dialyzed FBS, 1.71 µM | – | 6.6 | 22.4
HPLM + 10% dialyzed FBS, 5.12 µM | – | 5.26 | 7.01
HPLM + 10% dialyzed FBS, 15.4 µM | – | 6.98 | 16
HPLM + 10% dialyzed FBS, 46.1 µM | – | 5.13 | 15.2
RPMI 5 mM glucose + 10% FBS, 0.000781 µM | 103 | 106 | 89.4
RPMI 5 mM glucose + 10% FBS, 0.00234 µM | 124 | 110 | 104
RPMI 5 mM glucose + 10% FBS, 0.00702 µM | 117 | 128 | 118
RPMI 5 mM glucose + 10% FBS, 0.0211 µM | 128 | 128 | 109
RPMI 5 mM glucose + 10% FBS, 0.0632 µM | 123 | 112 | 109
RPMI 5 mM glucose + 10% FBS, 0.19 µM | 47.3 | 42.6 | 20.5
RPMI 5 mM glucose + 10% FBS, 0.569 µM | 22.7 | 11 | 15.2
RPMI 5 mM glucose + 10% FBS, 1.71 µM | 24.3 | 8.73 | 12
RPMI 5 mM glucose + 10% FBS, 5.12 µM | 19.3 | 7.18 | 6.19
RPMI 5 mM glucose + 10% FBS, 15.4 µM | 22.3 | 8.04 | 7.56
RPMI 5 mM glucose + 10% FBS, 46.1 µM | 17.1 | 9.16 | 3.89
RPMI 5 mM glucose + 10% dialyzed FBS, 0.000781 µM | 117 | 102 | 100
RPMI 5 mM glucose + 10% dialyzed FBS, 0.00234 µM | 120 | 102 | 100
RPMI 5 mM glucose + 10% dialyzed FBS, 0.00702 µM | 133 | 113 | 108
RPMI 5 mM glucose + 10% dialyzed FBS, 0.0211 µM | 126 | 113 | 106
RPMI 5 mM glucose + 10% dialyzed FBS, 0.0632 µM | 132 | 120 | 101
RPMI 5 mM glucose + 10% dialyzed FBS, 0.19 µM | 99.5 | 93.4 | 47.2
RPMI 5 mM glucose + 10% dialyzed FBS, 0.569 µM | 33.2 | 21 | 21.2
RPMI 5 mM glucose + 10% dialyzed FBS, 1.71 µM | 32.1 | 14.2 | 20.8
RPMI 5 mM glucose + 10% dialyzed FBS, 5.12 µM | 22.9 | 7.5 | 5.56
RPMI 5 mM glucose + 10% dialyzed FBS, 15.4 µM | 26.4 | 9.98 | 14.3
RPMI 5 mM glucose + 10% dialyzed FBS, 46.1 µM | 23.3 | 11.8 | 8.93

AUC of viability dose-response curve
Conditions | NOMO1 [4] | P12-Ichikawa [5] | SEM cells [6]
HPLM + 10% dialyzed FBS | 286 | 251 | 242
RPMI 5 mM glucose + 10% FBS | 272 | 246 | 242
RPMI 5 mM glucose + 10% dialyzed FBS | 300 | 281 | 263

C[N]1C=NC=C1[C@@](N)(C2=CC=C(Cl)C=C2)C3=CC=C4N(C)C(=O)\C=C(\C5=CC=CC(=C5)Cl)C4=C3
cell viability [%]
Conditions | NOMO1 [1] | P12-Ichikawa [2] | SEM cells [3]
HPLM + 10% dialyzed FBS, 0.000781 µM | 108 | 111 | 112
HPLM + 10% dialyzed FBS, 0.00234 µM | 98.5 | 110 | 126
HPLM + 10% dialyzed FBS, 0.00702 µM | 112 | 113 | 111
HPLM + 10% dialyzed FBS, 0.0211 µM | 129 | 106 | 103
HPLM + 10% dialyzed FBS, 0.0632 µM | 91.5 | 109 | 65.5
HPLM + 10% dialyzed FBS, 0.19 µM | 95.4 | 97.4 | 53.1
HPLM + 10% dialyzed FBS, 0.569 µM | 84.9 | 82.4 | 50.7
HPLM + 10% dialyzed FBS, 1.71 µM | 83.4 | 79.2 | 48.5
HPLM + 10% dialyzed FBS, 5.12 µM | 76.2 | 73 | 49.2
HPLM + 10% dialyzed FBS, 15.4 µM | 73.5 | 50.1 | 39.8
HPLM + 10% dialyzed FBS, 46.1 µM | 47.2 | 27.9 | 28.6
RPMI 5 mM glucose + 10% FBS, 0.000781 µM | 100 | 110 | 105
RPMI 5 mM glucose + 10% FBS, 0.00234 µM | 95.6 | 113 | 116
RPMI 5 mM glucose + 10% FBS, 0.00702 µM | 95.5 | 113 | 109
RPMI 5 mM glucose + 10% FBS, 0.0211 µM | 93.2 | 106 | 101
RPMI 5 mM glucose + 10% FBS, 0.0632 µM | 102 | 100 | 72.2
RPMI 5 mM glucose + 10% FBS, 0.19 µM | 94.2 | 81.2 | 43.9
RPMI 5 mM glucose + 10% FBS, 0.569 µM | 90.3 | 82.9 | 51.7
RPMI 5 mM glucose + 10% FBS, 1.71 µM | 84.8 | 69 | 43.7
RPMI 5 mM glucose + 10% FBS, 5.12 µM | 85.4 | 67.7 | 40.6
RPMI 5 mM glucose + 10% FBS, 15.4 µM | 82.6 | 42.1 | 33.9
RPMI 5 mM glucose + 10% FBS, 46.1 µM | 52.8 | 32.3 | 13.6
RPMI 5 mM glucose + 10% dialyzed FBS, 0.000781 µM | 112 | 105 | 105
RPMI 5 mM glucose + 10% dialyzed FBS, 0.00234 µM | 111 | 114 | 102
RPMI 5 mM glucose + 10% dialyzed FBS, 0.00702 µM | 121 | 115 | 97.9
RPMI 5 mM glucose + 10% dialyzed FBS, 0.0211 µM | 106 | 100 | 108
RPMI 5 mM glucose + 10% dialyzed FBS, 0.0632 µM | 110 | 107 | 98.5
RPMI 5 mM glucose + 10% dialyzed FBS, 0.19 µM | 97.3 | 92.2 | 71
RPMI 5 mM glucose + 10% dialyzed FBS, 0.569 µM | 97.1 | 85.5 | 65.9
RPMI 5 mM glucose + 10% dialyzed FBS, 1.71 µM | 87.7 | 72.8 | 62.8
RPMI 5 mM glucose + 10% dialyzed FBS, 5.12 µM | 80.9 | 69.6 | 55
RPMI 5 mM glucose + 10% dialyzed FBS, 15.4 µM | 67.4 | 59.9 | 49.7
RPMI 5 mM glucose + 10% dialyzed FBS, 46.1 µM | 41.7 | 39.3 | 22.3

AUC of viability dose-response curve
Conditions | NOMO1 [4] | P12-Ichikawa [5] | SEM cells [6]
HPLM + 10% dialyzed FBS | 398 | 377 | 284
RPMI 5 mM glucose + 10% FBS | 430 | 352 | 279
RPMI 5 mM glucose + 10% dialyzed FBS | 401 | 376 | 342
